In patent US10414797B2, “Gelatinase inhibitors and use thereof” (Iproteos S.L, priority 2015, dated 2019):
Where a SMILES comes first, the peptide text is derived from it. [ ]: non-standard residue; d: D form. The star is where a group is joined. ξ: configuration not given here. NMeIle(3ξ) = CCC(C)[C@H](NC)C(=O)O; NMeQ = CN[C@@H](CCC(N)=O)C(=O)O; Ile(3ξ) = CCC(C)[C@H](N)C(=O)O; Hexanoyl = CCCCCC(=O)*; NHOH = ON*

Assays:
MMP-2 = MMP-2 (Homo sapiens (Human), UniProt P08253); assay: MMP-2 inhibition assay (fluorimetric, DQ gelatin substrate); format: biochemical; details: recombinant MMP-2 (CHO cells) 85 ng/mL, DQ gelatin 50 μg/mL, 2 hours at room temperature, pH 7.6
Chain of MMP-2 (P08253 110-660): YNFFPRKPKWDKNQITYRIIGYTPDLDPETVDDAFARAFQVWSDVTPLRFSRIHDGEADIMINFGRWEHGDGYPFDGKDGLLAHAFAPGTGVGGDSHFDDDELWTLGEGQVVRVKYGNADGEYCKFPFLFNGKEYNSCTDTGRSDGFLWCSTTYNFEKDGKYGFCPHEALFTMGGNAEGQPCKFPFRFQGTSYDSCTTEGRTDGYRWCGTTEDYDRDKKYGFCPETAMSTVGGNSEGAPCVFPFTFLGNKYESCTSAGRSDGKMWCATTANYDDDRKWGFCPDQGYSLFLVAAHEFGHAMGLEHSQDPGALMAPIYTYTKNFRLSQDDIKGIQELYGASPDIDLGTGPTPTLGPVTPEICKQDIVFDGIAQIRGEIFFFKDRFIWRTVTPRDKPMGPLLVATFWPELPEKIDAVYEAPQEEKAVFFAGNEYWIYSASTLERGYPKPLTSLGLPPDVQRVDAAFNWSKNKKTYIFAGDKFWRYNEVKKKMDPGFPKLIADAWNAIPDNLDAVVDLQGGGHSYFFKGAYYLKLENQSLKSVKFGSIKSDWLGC
Method: (§1) All the experiments were done in 1× reaction buffer, which was obtained from a 10× reaction buffer solution. The content of the 10× reaction buffer was: 50 mL of 0.5 M Tris-HCl, 1.5 M NaCl, 50 mM CaCl2 and 2 mM sodium azide at pH 7.6. To obtain the 1× reaction buffer 4 mL of the 10× reaction buffer were diluted in 36 mL of H2O.
Recombinant MMP-2 expressed in Chinese hamster ovary (CHO) cells was obtained from Merck-Millipore (catalog number PF023-5UG). DQ gelatin from pig skin fluorescein conjugated (MMP-2 substrate) was obtained from Life Technologies (catalog number E12055).
Preparation of the MMP-2 for the activity assay: MMP-2 was provided as a stock solution (0.1 mg/mL). The enzyme was diluted in 1× reaction buffer to a final concentration of 5 μg/mL.
(§2) Preparation of the DQ gelatin (substrate) solution for the activity assay: the solid form of the substrate was dissolved in water in order to obtain a stock solution of 1 mg/mL.
(§3) Procedure: The enzymatic assays were performed in 96-well microtiter plate, which allowed simultaneous monitoring of multiple reactions. For each reaction, 86.3 μL of 1× reaction buffer (pH 7.6), 1.7 μL of MMP-2 (final concentration 85 ng/mL) and 2 μL of the corresponding new compound were added to each well. A stock solution of new compound was prepared in DMSO (100 mM), and dilutions were prepared from this stock solution with DMSO. Finally, to the mixture contained in each well 10 μL of the substrate were added (final concentration 50 μg/mL). The reaction was incubated for 2 hours at room temperature in an orbital shaker (100 rpm).
(§4) The inhibitory activity of the new compound was measured fluorimetrically. The excitation and emission wavelengths were 483 and 525 nm, respectively.
(§5) Inhibitory activity at several concentration points (ranging from 100 pM to 200 μM MMP) were measured for each compound. The inhibitory activity on MMP-2 and MMP-9 was calculated according to eq 1. For each new compound, the fluorescence in the presence (a) and in the absence (b) of the corresponding MMP was measured. The maximum fluorescence (0% inhibitory activity) was obtained from a sample of the corresponding MMP in the absence of inhibitory compounds. To estimate the inhibitory potency of the novel compounds, activities were plotted against the log concentration of the compound, adjusting to a sigmoid curve using GraphPad Prism software, and the IC50 value, defined as the concentration of compound required to inhibit 50% of the corresponding MMP activity, was determined from resulting curve.
(§6) a corresponds to fluorescence intensity in the presence of substrate+test compound+MMP
(§7) b corresponds to the fluorescence intensity in the presence of substrate+tested compound
(§8) c corresponds to the fluorescence intensity in the presence of substrate+MMP
(§9) d corresponds to the fluorescence intensity of the presence of substrate

MMP-9 = MMP-9 inhibition assay (fluorimetric, DQ gelatin substrate); format: biochemical; details: recombinant MMP-9 (Merck-Millipore for examples 1 to 9 and comparative examples; Enzo for examples 10 to 16), DQ gelatin 50 μg/mL, 4 hours at room temperature, pH 7.6
Chain of MMP-9 (P14780 107-707 limits assumed): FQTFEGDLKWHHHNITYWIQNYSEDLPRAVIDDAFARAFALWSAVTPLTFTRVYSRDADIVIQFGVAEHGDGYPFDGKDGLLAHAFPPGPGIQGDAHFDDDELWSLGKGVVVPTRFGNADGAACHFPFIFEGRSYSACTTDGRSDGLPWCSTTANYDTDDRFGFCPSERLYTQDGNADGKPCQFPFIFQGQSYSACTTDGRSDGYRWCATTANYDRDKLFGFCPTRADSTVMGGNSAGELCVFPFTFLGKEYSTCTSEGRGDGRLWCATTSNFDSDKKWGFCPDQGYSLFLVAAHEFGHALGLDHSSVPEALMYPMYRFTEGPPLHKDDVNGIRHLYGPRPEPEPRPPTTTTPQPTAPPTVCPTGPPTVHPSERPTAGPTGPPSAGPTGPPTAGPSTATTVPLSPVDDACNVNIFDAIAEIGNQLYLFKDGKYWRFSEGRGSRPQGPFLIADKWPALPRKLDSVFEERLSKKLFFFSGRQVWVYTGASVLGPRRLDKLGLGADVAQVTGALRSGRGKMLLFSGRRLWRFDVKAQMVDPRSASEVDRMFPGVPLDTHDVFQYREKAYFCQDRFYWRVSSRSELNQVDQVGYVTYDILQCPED
Method: as §1
Recombinant MMP-9 expressed was obtained from Merck-Millipore (catalog number PF140-5UG, used in examples 1 to 9 and comparative examples) and Enzo (catalog number-SE360-0010, used in examples 10 to 16). DQ gelatin from pig skin fluorescein conjugated (MMP-9 substrate) was obtained from Life Technologies (catalog number E12055).
Preparation of the MMP-9 for the activity assay: MMP-9 was provided as a stock solution (0.1 mg/mL). The enzyme was diluted in 1× reaction buffer to a final concentration of 5 μg/mL.
as §2
as §3, with “reaction, 84.6” for “reaction, 86.3”, “7.6), […]” for “7.6), 1.7”, “of MMP-9” for “of MMP-2”, “for 4” for “for 2”
as §4, §5, §6, §7, §8, §9

IC50 (MMP-2) [µM] | IC50 (MMP-9) [µM] | Structure (SMILES)
> 2000 | > 2000 | CCC(C)[C@H](NC(=O)[C@@H]1CCCN1C(=O)[C@H](CCC(N)=O)NC(C)=O)C(=O)NO (stereo partly drawn) [Example C19, (2S)-1-[(2S)-2-acetamido-5-amino-5-oxo-pentanoyl]-N-[(1S)-1-(hydroxycarbamoyl)-2-methyl-butyl]pyrrolidine-2-carboxamide, reference compound] (Ac-Gln-Pro-[Ile(3ξ)]-{NHOH})
710 | 240 | CCC(C)[C@H](NC(=O)[C@H](Cc1c[nH]c2ccccc12)NC(=O)[C@H](CCC(N)=O)NC(C)=O)C(=O)NO (stereo partly drawn) [Example C18, (2 S)-2-acetamido-N-[(1S)-2-[[(1S)-1-(hydroxycarbamoyl)-2-methyl-butyl]amino]-1-(1H-indol-3-ylmethyl)-2-oxo-ethyl]pentanediamide, reference compound] (Ac-Gln-Trp-[Ile(3ξ)]-{NHOH})
110 | 16 | CCC(C)[C@@H](C(=O)N[C@@H](Cc1c[nH]c2ccccc12)C(=O)NO)N(C)C(=O)[C@@H]1CCCN1C(C)=O (stereo partly drawn) [Example C21, (2S)-1-acetyl-N-[(1S)-1-[[(1S)-2-(hydroxyamino)-1-(1H-indol-3-ylmethyl)-2-oxo-ethyl]carbamoyl]-2-methyl-butyl]-N-methyl-pyrrolidine-2-carboxamide, reference compound] (Ac-Pro-[NMeIle(3ξ)]-Trp-{NHOH})
> 2000 | > 1000 | CCCCCC(=O)N1CCC[C@H]1C(=O)N(C)[C@@H](CCC(N)=O)C(=O)N[C@@H](Cc1c[nH]c2ccccc12)C(=O)NO [Example C23, (2S)-2-[[(SS)-1-hexanoylpyrrolidine-2-carbonyl)-methyl-amino]-N-[(1S)-2-(hydroxyamino)-1-(1H-indol-3-ylmethyl)-2-oxo-ethyl]pentanediamide, reference compound] (Hexanoyl-Pro-[NMeQ]-Trp-{NHOH})
